Measured values as given in patent US10160771B2, “Hepatitis C virus inhibitors and uses thereof in preparation of drugs” (priority 2014, dated 2018).

What was measured:
[1] = test system: HCV genotype 1a (HCV-1a) replicon cells; test: HCV genotype 1a replicon luciferase assay (EC50); assay type: cell-based, hepatitis C virus genotype 1a (H77 clone); settings: 3 days, luciferase (Bright-Glo)
Method: (§1) The EC50 and CC50 values of anti-HCV compounds were determined by HCV genotype 1a (HCV-1a) and 1B (HCV-1b) stable transfer replication (replicon) cells. The source of genotype 1a replicon is H77 clones containing K1691R, K2040R and S2204I adaptive mutations. The source of genotype 1b replicon is Con1 clones containing E1202G, T1280I and K1846T adaptive mutations.
(§2) HCV 1a (HCV-1a) and 1b (HCV-1b) gene subtype replicon system contains the related HCV gene subtype non structural protein gene, G418 resistance gene NEO and luciferase gene, which results in that HCV related protein and luciferase can be stably expressed in cells. By detecting the level of expression of luciferase gene, the level of HCV replication can be determined. Therefore, the system is used as a model for screening the activity of anti-HCV compound in vitro.
(§3) HCV Replicon Cell Lines: HCV-1a and HCV-1b Cells
(§4) The compound powder was dissolved in 100% DMSO. Then the compound was diluted 5 times with 6 points, and added into the cell plate with Echo liquid handler. Ensure the final concentration of DMSO was 0.5%. Each compound was tested in double holes. Maximum initial concentration was 100, 10 or 1 nM, 5 times dilution, 6 points.
(§5) b) Cell Culture (HCV-1a or HCV-1b Replicon Cell):
(§6) 1) absorbing the culture supernatant of the cell culture and washing the cells with 10 mL PBS.
(§7) 2) adding preheated pancreatin to the washed cell culture flasks, rotating culture bottle to make the bottom of the culture bottle uniformly covered by pancreatin, then placed into 37° C., 5% CO2 incubator to digest.
(§8) 3) suspending cells in each T150 culture flask with 10-15 mL culture medium, absorbing 0.1 mL liquid and diluting 2 times by trypan blue solution as counted.
(§9) 4) diluting cells to 8×10^4/mL with the culture medium, adding the diluted cells into the compound-containing 96-well plate (Greiner, Cat.#655090) (100 μL/well, 8000 cells/well) with automatic liquid separator (Thermo Scientific). Then place into a 37° C., 5% CO2 incubator for 3 days. Cell control well: no compound, only containing 0.5% DMSO.
(§10) 6) then adding luciferase luminescence substrate Bright-Glo, after incubation for 5 minutes, detecting the luciferase activity by chemical luminescence detection system Envison (wavelength>700 nm); analyzing the anti-HCV inhibitory activity of the compounds according to luciferase data, which was used to calculate EC50 values.
(§11) The EC50 or CC50 values were obtained by nonlinear fitting analysis on inhibition percentage (inh %) data with GraphPad Prism software.

[2] = test system: HCV genotype 1b (HCV-1b) replicon cells; test: HCV genotype 1b replicon luciferase assay (EC50); assay type: cell-based, hepatitis C virus genotype 1b (Con1 clone); settings: 3 days, luciferase (Bright-Glo)
Method: as §1, §2, §3, §4, §5, §6, §7, §8, §9, §10, §11

[3] = Cell Titer-fluor cell activity assay in HCV-1b replicon cells (CC50); assay type: cell-based
Method: as §1, §3, §4, §5, §6, §7, §8, §9
5) adding chemiluminescent substrate Cell Titer-fluor to the cell well, after incubation for 30 minutes, detecting the signal by chemiluminescence detection system Envison (Ex at 405 nm and read at 515 nm). The effect of the compounds on the activity of HCV replicon cells was analyzed according to the luminescence data, which was used to calculate the CC50 values.
as §11

Compound | EC50 ([1]; Hepatitis C virus, 72 h) [nM] | EC50 ([2]; Hepatitis C virus, 72 h) [nM] | CC50 at 3 days [3] [nM] | EC50 [1] [nM] | EC50 [2] [nM]
COC(=O)N[C@H](C(=O)N1CCC[C@H]1c1ncc(-c2ccc(-c3ccc(-c4cnc([C@@H]5C6CCC(C6)[C@H]5C(=O)NCc5ccc(C(F)(F)F)nc5)[nH]4)cc3)cc2)[nH]1)C(C)C (stereo partly shown) [AA_232_B] | 1 to 10 | 0.001 to 0.1 | > 1 |  | 
COC(=O)N[C@H](C(=O)N1CCC[C@H]1c1ncc(-c2ccc(-c3ccc(-c4cnc(C5C6CCC(C6)[C@@H]5C(=O)NCc5ccc(C(F)(F)F)nc5)[nH]4)cc3)cc2)[nH]1)[C@@H](C)OC (stereo partly shown) [AA_264_A] | 1 to 10 | 0.101 to 1 | > 1 |  | 
COC(=O)N[C@H](C(=O)N1CCC[C@H]1c1ncc(-c2ccc(-c3ccc(-c4cnc(C5C6CCC(C6)[C@H]5C(=O)N(NC(=O)OC)C(C)C)[nH]4)cc3)c(OC)c2)[nH]1)C(C)C (stereo partly shown) [AA_190_B] | 10 to 100 | 0.101 to 1 | > 1 |  | 
COC(=O)N[C@H](C(=O)N1CCCC1c1ccc(-c2ccc(-c3ccc(-c4cnc([C@@H]5COC(C)(C)N5C(=O)[C@@H](NC(=O)OC)C(C)C)[nH]4)cc3)cc2)[nH]1)C(C)C (stereo partly shown) [AG_022] | 10 to 100 | 0.101 to 1 | > 10 |  | 
COC(=O)N[C@H](C(=O)N1CC2(C[C@H]1c1ncc(-c3ccc(-c4ccc(-c5cnc(C6C7CCC(C7)[C@H]6C(=O)NCc6cccnc6)[nH]5)cc4)cc3)[nH]1)OCCO2)C(C)C (stereo partly shown) [AA_192_B] | 1 to 10 | 0.001 to 0.1 | > 1 |  | 
COC(=O)N[C@H](C(=O)N1CCC[C@H]1c1ncc(-c2ccc(-c3ccc(-c4cnc([C@H]5C6CCC(C6)[C@@H]5C(=O)NCc5cccnc5OC)[nH]4)cc3)cc2)[nH]1)C(C)C (stereo partly shown) [AA_203_A] | 1 to 10 | 0.001 to 0.1 | > 1 |  | 
COC(=O)N[C@H](C(=O)N1CCC[C@H]1c1ncc(-c2ccc(-c3ccc(-c4cnc(C5C6CCC(C6)[C@@H]5C(=O)NC(C)c5cnccn5)[nH]4)cc3)cc2)[nH]1)[C@@H](C)OC (single isomer, unassigned) [AA_281_A] |  |  | > 1 | 0.101 to 1 | 0.001 to 0.1
COC(=O)N[C@H](C(=O)N1CCCC1c1ncc(-c2ccc(-c3ccc(-c4[nH]c(C5CCCN5C(=O)[C@@H](NC(=O)OC)C(C)C)c5c4CCCC5)cc3)cc2)[nH]1)C(C)C (stereo partly shown) [AG_014] | 10 to 100 | 0.101 to 1 | > 10 |  | 
COC(=O)N[C@H](C(=O)N1CCC[C@H]1c1ncc(-c2ccc(-c3ccc(-c4cnc([C@@H]5[C@H]6CC[C@H](C6)[C@H]5C(=O)NCc5cncnc5)[nH]4)cc3)cc2)[nH]1)C(C)C [AA_201_ENDOA2] | 0.101 to 1 | 0.001 to 0.1 | > 1 |  | 
COC(=O)N[C@H](C(=O)N1CCC[C@H]1c1ncc(-c2ccc(-c3ccc(-c4cnc(C5CC6(C[C@@H]5C(=O)N(NC(=O)OC)C(C)C)OCCO6)[nH]4)cc3)cc2)[nH]1)C(C)C (stereo partly shown) [AA_160] | 1 to 10 | 0.001 to 0.1 | > 50 |  | 
COC(=O)N[C@H](C(=O)N1CCC[C@H]1c1ncc(-c2ccc(-c3ccc(-c4cnc(C5C6CCC(C6)[C@H]5C(=O)NCc5ccccn5)[nH]4)cc3)cc2)[nH]1)[C@@H](C)OC (stereo partly shown) [AA_221_A] | 1 to 10 | 0.001 to 0.1 | > 1 |  | 
COC(=O)N[C@H](C(=O)N1CCC[C@H]1c1ncc(-c2ccc(-c3ccc(-c4cnc([C@@H]5C6CCC(C6)[C@H]5C(=O)NCc5ccc(OC)nc5)[nH]4)cc3)cc2)[nH]1)C(C)C (stereo partly shown) [AA_200_B] | 1 to 10 | 0.001 to 0.1 | > 1 |  | 
COC(=O)N[C@H](C(=O)N1CCC[C@H]1c1ncc(-c2ccc(-c3ccc(-c4cnc([C@H]5CCCC[C@@H]5C(=O)NCc5cccnc5)[nH]4)cc3)cc2)[nH]1)C(C)C [AA_150_A] | 10 to 100 | 0.101 to 1 | > 10 |  | 
COC(=O)N[C@H](C(=O)N1CCC[C@H]1c1ncc(-c2ccc(-c3ccc(-c4cnc([C@@H]5C6CCC(C6)[C@H]5C(=O)NCCO)[nH]4)cc3)cc2)[nH]1)C(C)C (stereo partly shown) [AA_193] | 1 to 10 | 0.001 to 0.1 | > 1 |  | 
COC(=O)N[C@H](C(=O)N1CCC[C@H]1c1[nH]c(-c2ccc(-c3ccc(-c4[nH]c([C@@H]5CCCN5C(=O)[C@@H](NC(=O)OC)C(C)C)c5c4CCC5)cc3)cc2)c2c1CCC2)C(C)C [AG_026_A] | 10 to 100 | 0.101 to 1 | > 10 |  | 
COC(=O)N[C@H](C(=O)N1CCC[C@H]1c1ncc(-c2ccc(-c3ccc(-c4cnc([C@H]5C6CCC(C6)[C@@H]5C(=O)NCc5ccccc5N)[nH]4)cc3)cc2)[nH]1)C(C)C (stereo partly shown) [AA_194] | 10 to 100 | 0.001 to 0.1 | > 1 |  | 
COC(=O)N[C@H](C(=O)N1CCC[C@H]1c1[nH]c(-c2ccc(-c3ccc(-c4cnc([C@@H]5CCCN5C(=O)[C@@H](NC(=O)OC)[C@@H](C)O)[nH]4)cc3)cc2)c2c1COC2)C(C)C [AG_104] | 0.001 to 0.1 | 0.001 to 0.1 | > 1 |  | 
COC(=O)N[C@H](C(=O)N1CCC[C@H]1c1ncc(-c2ccc(-c3ccc(-c4cc(Cl)c([C@@H]5CCCN5C(=O)[C@@H](NC(=O)OC)[C@@H](C)OC)[nH]4)cc3)cc2)[nH]1)[C@@H](C)OC [AG_094] | 0.101 to 1 | 0.001 to 0.1 | > 1 |  | 
CC[C@H](C)[C@H](NC(=O)OC)C(=O)N1CCC[C@H]1c1ncc(-c2ccc(-c3ccc(-c4ccc([C@@H]5CCCN5C(=O)[C@@H](NC(=O)OC)C(C)C)[nH]4)cc3)cc2)[nH]1 [AG_107] | 1 to 10 | 0.001 to 0.1 | > 1 |  | 
COC(=O)N[C@H](C(=O)N1CCC[C@H]1c1ncc(-c2ccc(-c3ccc(-c4cnc(C5CCCC[C@@H]5C(=O)N(NC(=O)OC)C(C)C)[nH]4)cc3F)cc2)[nH]1)C(C)C (stereo partly shown) [AA_117] | 10 to 100 | 0.101 to 1 | > 10 |  | 
COC(=O)N[C@H](C(=O)N1CCC[C@H]1c1[nH]c(-c2ccc(-c3ccc(-c4cnc(C5C6CCC(C6)[C@@H]5C(=O)N(NC(=O)OC)C(C)C)[nH]4)cc3)cc2)c2c1CCC2)C(C)C (stereo partly shown) [AA_155] | 10 to 100 | 1 to 10 | > 100 |  | 
COC(=O)N[C@H](C(=O)N1CCC[C@H]1c1ncc(-c2ccc(-c3ccc(-c4cnc(C5C6CCC(C6)[C@@H]5C(=O)NCc5ccco5)[nH]4)cc3)cc2)[nH]1)[C@@H](C)OC (stereo partly shown) [AA_222_A] | 10 to 100 | 0.001 to 0.1 | > 1 |  | 
COC(=O)NN(C(=O)[C@H]1CCCCC1c1ncc(-c2ccc(-c3ccc4cc(-c5cnc(C6CCCC[C@H]6C(=O)N(NC(=O)OC)C(C)C)[nH]5)ccc4c3)cc2)[nH]1)C(C)C (stereo partly shown) [AA_074] |  | 10 to 100 | > 10 |  | 
COC(=O)N[C@H](C(=O)N1CCC[C@H]1c1ncc(-c2ccc(-c3ccc(-c4cnc(C5=C(C(=O)N(NC(=O)OC)C(C)C)CCC5)[nH]4)cc3)cc2)[nH]1)C(C)C [AA_007] |  | 1 to 10 | > 100 |  | 
COC(=O)NC(C(=O)N1CCCC1c1ncc(-c2ccc3cc(-c4cnc(C5CCCC[C@H]5C(=O)N(NC(=O)OC)C(C)C)[nH]4)ccc3c2)[nH]1)C1CCOC1 (stereo partly shown) [AA_078] |  | 10 to 100 | > 10 |  | 
COC(=O)N[C@H](C(=O)N1CCC[C@H]1c1ncc(-c2ccc(-c3ccc(-c4cnc(C5CCC[C@H]5C(=O)NC(C)C)[nH]4)cc3)cc2)[nH]1)C(C)C (stereo partly shown) [AA_028] |  | 1 to 10 | > 100 |  | 
COC(=O)N[C@H](C(=O)N1CCC[C@H]1c1ncc(-c2ccc(-c3ccc4cc(-c5cnc(C6CCCC[C@H]6C(=O)N(NC(=O)OC)C(C)C)[nH]5)ccc4c3)cc2)[nH]1)C(C)C (stereo partly shown) [AA_071] |  | 1 to 10 | > 10 |  | 
COC(=O)N[C@H](C(=O)N1CCC[C@H]1c1ncc(-c2ccc(-c3ccc(-c4cnc([C@@H]5CCCC[C@H]5C(=O)N(NC(=O)OC)C(C)C)[nH]4)cc3)cc2)[nH]1)C(C)C [AA_091_A] |  | 1 to 10 | > 10 |  | 
COC(=O)N[C@H](C(=O)N1CCC[C@H]1c1ncc(-c2ccc(-c3ccc(-c4cnc(C5CCCC[C@H]5C(=O)N(NC(=O)OC)C(C)C)[nH]4)cn3)cc2)[nH]1)C(C)C (stereo partly shown) [AA_108] |  | 1 to 10 | > 10 |  | 
COC(=O)NN(C(=O)[C@@H]1CCCCC1c1ncc(-c2ccc3cc(-c4ccc(-c5cnc(C6CCCC[C@@H]6C(=O)N(CC(=O)NC6CC6)C(C)C)[nH]5)cc4)ccc3c2)[nH]1)C(C)C (stereo partly shown) [AA_075] |  | 10 to 100 | > 10 |  | 
